The record followed here is patent publication US8791265B2, “Sulfonamido derivatives of 3,4-diarylpyrazoles as protein kinase inhibitors” (Nerviano Medical Sciences S.R.L., priority 2010, dated 2014).

In data set [1] the test system is p-MAPK (T202/Y204) in A375 human melanoma cells, having a mutated B-RAF. Briefly: p-MAPK (T202/Y204) ArrayScan assay. The settings on record: A-375, 1.5 or 2 hours treatment, p-MAPK cytoplasmatic fluorescence intensity, read-out: Array Scan A375 IC50. It counts as cell-based. As for the experimental part:
A375 human melanoma cells, having a mutated B-RAF, are seeded in 384-well poly-lysine coated plates (Matrix) at a density of 1000 cells/well with appropriate medium supplemented with 10% FCS and incubated for 16-24 hours. Cells are treated for 1.5 or 2 hours with increasing doses of compounds (starting dose 10 μM, dilution factor 2.5). At the end of the treatment cells are fixed with p-formaldehyde 3.7% for 15-30 min, then I/well) and permeabilized with D-PBS containing washed twice with D-PBS (80 0.1% Triton X-100 and 1% BSA (Sigma-Aldrich) for 15 minutes at room temperature (staining solution). Anti-phospho-MAPK (T202/Y204) monoclonal antibody E10 (Cell Signaling, cat. #9106) diluted 1:100 is added in staining solution and incubated for 1 hour at 37° C. After removal of the primary antibody solution, the anti-mouse Cy™2-conjugated (Green) secondary antibody (Amersham) diluted 1:500 in staining solution containing 2 μg/ml DAPI is added. The plate is incubated for 1 hour at 37° C., washed twice and then red with Cellomics' ArrayScan VTI (4 fields/well, CytoNucTrans algorithm).
The parameter “MEAN_RingAvgIntenCh2”, which measures the mean cytoplasmatic fluorescence intensity associated to p-MAPK staining, is reported as the final result.

The subject of data set [2] is human melanoma cells Mewo (with wild-type B-Raf). Briefly: In vitro cell proliferation assay, Mewo. It counts as cell-based. To be noted: 72 hours treatment, cell number by ATP monitoring. The procedure: (§1) Exponentially growing human melanoma cells A375 (with a mutated B-RAF) and human melanoma cells Mewo (with wild-type B-Raf) were seeded and incubated at 37° C. in a humidified 5% CO2 atmosphere. After 24 hours, scalar doses of the compound were added to the medium and cells oncubated for 72 hours. At the end of treatment, cells were washed and counted. Cell number was determined by a cellular adenosine triphosphate monitoring system. Cell proliferation was compared to control cells and the concentration inhibiting cell growth by 50% was calculated.

The subject of data set [3] is human melanoma cells A375 (with a mutated B-RAF). Briefly: In vitro cell proliferation assay, A375. It counts as cell-based. To be noted: A-375, 72 hours treatment, cell number by ATP monitoring. The procedure: as §1
Data set [4] can be described thus: Stability study in PBS buffer pH 7.4. It counts as physicochemical. The settings on record: PBS pH 7.4, 37° C., 0-120 minutes, HPLC/MS; FIG. 1. As for the experimental part: (§2) A compound of formula (I) of the present invention, dissolved in DMSO, was incubated at 37° C. in PBS at pH 7.4 or fresh mouse plasma. Aliquots were withdrawn and analysed by HPLC/MS at 0, 5, 15, 60 and 120 minutes. The UV signal in the range 210-400 nm was used for the quantification of the chromatographic peaks either of the compound of formula (I) and the parent compound of formula (II).

Data set [5] is described as follows: In vitro conversion of prodrug into parent compound in fresh mouse plasma. It counts as in vitro ADME. To be noted: 37° C., 0-120 minutes, HPLC/MS, FIG. 2. As for the experimental part: as §2

A word on the IC50: it is the concentration at which inhibition is half-maximal.

Take `CCn1cc(-c2ccncc2)c(-c2c(F)ccc(N(C(C)=O)S(=O)(=O)c3cc(F)ccc3F)c2F)n1` [compound 5, N-[(2,5-difluorophenyl)sulfonyl]-N-{3-[1-ethyl-4-(pyridin-4-yl)-1H-pyrazol-3-yl]-2,4-difluorophenyl}acetamide]: the values for the IC50 in data set [1], in data set [2] and in data set [3] were 20 nM, above 10000 nM and 20 nM, respectively.

On to `CCCOC(=O)N(c1ccc(F)c(-c2nn(CC)cc2-c2ccncc2)c1F)S(=O)(=O)c1cc(F)ccc1F` [compound 3, propyl [(2,5-difluorophenyl)sulfonyl]{3-[1-ethyl-4-(pyridin-4-yl)-1H-pyrazol-3-yl]-2,4-difluorophenyl}carbamate], for which the IC50 in data set [1] is 20 nM; in data set [2], above 10000 nM; in data set [3], 20 nM.

As for `CCOC(=O)N(c1ccc(F)c(-c2nn(CC)cc2-c2ccncc2)c1F)S(=O)(=O)c1cc(F)ccc1F` [Cmpd. No. 2, ethyl [(2,5-difluorophenyl)sulfonyl]{3-[1-ethyl-4-(pyridin-4-yl)-1H-pyrazol-3-yl]-2,4-difluorophenyl}carbamate], the IC50 is 140 nM in data set [1], above 10000 nM in data set [2] and 370 nM in data set [3]. For the same compound, the “stability in PBS buffer” value in data set [4] is “stable in buffer”. Besides, the “conversion into the parent compound in fresh mouse plasma” value in data set [5] is given as “rapidly converted into the corresponding parent compound”.

For `CCn1cc(-c2ccnc(N)c2)c(-c2c(F)ccc(N(C(C)=O)S(=O)(=O)c3cc(F)ccc3F)c2F)n1` [Cmpd. No. 45, N-{3-[4-(2-aminopyridin-4-yl)-1-ethyl-1H-pyrazol-3-yl]-2,4-difluorophenyl}-N-[(2,5-difluorophenyl)sulfonyl]acetamide], the figures for the 50% inhibitory concentration (IC50) in data set [1], in data set [2] and in data set [3] were 50 nM, above 10000 nM and 90 nM, respectively.

With `CCn1cc(-c2ccncc2)c(-c2c(F)ccc(N(COC(C)=O)S(=O)(=O)c3cc(F)ccc3F)c2F)n1` [compound 7, ([(2,5-difluorophenyl)sulfonyl]{3-[1-ethyl-4-(pyridin-4-yl)-1H-pyrazol-3-yl]-2,4-difluorophenyl}amino)methyl acetate], the IC50 in data set [1] is 20 nM; in data set [2], above 10000 nM; in data set [3], 20 nM.

`CCOC(=O)N(c1ccc(F)c(-c2nn(C)cc2-c2ccncc2)c1F)S(=O)(=O)c1cc(F)ccc1F` [compound 12, ethyl [(2,5-difluorophenyl)sulfonyl]{3-[1-methyl-4-(pyridin-4-yl)-1H-pyrazol-3-yl]-2,4-difluorophenyl}carbamate]: the IC50 in data set [1] is 20 nM; in data set [2], above 10000 nM; in data set [3], 170 nM.

As for `CCn1cc(-c2ccncc2)c(-c2c(F)ccc(N(C(=O)OC(C)C)S(=O)(=O)c3cc(F)ccc3F)c2F)n1` [Cmpd. No. 4, propan-2-yl [(2,5-difluorophenyl)sulfonyl]{3-[1-ethyl-4-(pyridin-4-yl)-1H-pyrazol-3-yl]-2,4-difluorophenyl}carbamate], the IC50 in data set [1] was 20 nM; in data set [2] it was above 10000 nM; in data set [3], 20 nM.

On to `CCn1cc(-c2ccncc2)c(-c2c(F)ccc(N(C(=O)OC)S(=O)(=O)c3cc(F)ccc3F)c2F)n1` [compound 1, methyl [(2,5-difluorophenyl)sulfonyl]{3-[1-ethyl-4-(pyridin-4-yl)-1H-pyrazol-3-yl]-2,4-difluorophenyl}carbamate], for which the half-inhibitory concentration (IC50) is 20 nM in data set [1], above 10000 nM in data set [2] and 20 nM in data set [3].
